According to the NIST ThermoML archive (doi:10.1016/j.tca.2018.01.022):
Numbers after ± are expanded uncertainties.

Conditions: 298 K; 101.33 kPa; Crystal; Buoyancy - hydrostatic balance

Compound `[Al]` [aluminum] has a mass density of 2656 ± 310 kg/m3.
In the case of `[Mo]` [molybdenum], the mass density is reported as 9999 ± 600 kg/m3.
